Results on 31 molecules are retold here after US20230134428A1, “FUSED HETEROARYL COMPOUNDS, AND METHODS THEREOF FOR TREATING DISEASES, DISORDERS, AND CONDITIONS RELATING TO ABERRANT FUNCTION OF A SODIUM CHANNEL” (Praxis Precision Medicines, Inc., priority 2016, published 2023).

Molecules are shown by their SMILES.

The target in one assay is T1, human NaV1.6 (hNaV1.6) (Homo sapiens, UniProt Q9UQD0).
T1 construct: expressed in transfected cells; host or cells: HEK-293 (G418 selection)
T1 sequence (Q9UQD0 whole entry): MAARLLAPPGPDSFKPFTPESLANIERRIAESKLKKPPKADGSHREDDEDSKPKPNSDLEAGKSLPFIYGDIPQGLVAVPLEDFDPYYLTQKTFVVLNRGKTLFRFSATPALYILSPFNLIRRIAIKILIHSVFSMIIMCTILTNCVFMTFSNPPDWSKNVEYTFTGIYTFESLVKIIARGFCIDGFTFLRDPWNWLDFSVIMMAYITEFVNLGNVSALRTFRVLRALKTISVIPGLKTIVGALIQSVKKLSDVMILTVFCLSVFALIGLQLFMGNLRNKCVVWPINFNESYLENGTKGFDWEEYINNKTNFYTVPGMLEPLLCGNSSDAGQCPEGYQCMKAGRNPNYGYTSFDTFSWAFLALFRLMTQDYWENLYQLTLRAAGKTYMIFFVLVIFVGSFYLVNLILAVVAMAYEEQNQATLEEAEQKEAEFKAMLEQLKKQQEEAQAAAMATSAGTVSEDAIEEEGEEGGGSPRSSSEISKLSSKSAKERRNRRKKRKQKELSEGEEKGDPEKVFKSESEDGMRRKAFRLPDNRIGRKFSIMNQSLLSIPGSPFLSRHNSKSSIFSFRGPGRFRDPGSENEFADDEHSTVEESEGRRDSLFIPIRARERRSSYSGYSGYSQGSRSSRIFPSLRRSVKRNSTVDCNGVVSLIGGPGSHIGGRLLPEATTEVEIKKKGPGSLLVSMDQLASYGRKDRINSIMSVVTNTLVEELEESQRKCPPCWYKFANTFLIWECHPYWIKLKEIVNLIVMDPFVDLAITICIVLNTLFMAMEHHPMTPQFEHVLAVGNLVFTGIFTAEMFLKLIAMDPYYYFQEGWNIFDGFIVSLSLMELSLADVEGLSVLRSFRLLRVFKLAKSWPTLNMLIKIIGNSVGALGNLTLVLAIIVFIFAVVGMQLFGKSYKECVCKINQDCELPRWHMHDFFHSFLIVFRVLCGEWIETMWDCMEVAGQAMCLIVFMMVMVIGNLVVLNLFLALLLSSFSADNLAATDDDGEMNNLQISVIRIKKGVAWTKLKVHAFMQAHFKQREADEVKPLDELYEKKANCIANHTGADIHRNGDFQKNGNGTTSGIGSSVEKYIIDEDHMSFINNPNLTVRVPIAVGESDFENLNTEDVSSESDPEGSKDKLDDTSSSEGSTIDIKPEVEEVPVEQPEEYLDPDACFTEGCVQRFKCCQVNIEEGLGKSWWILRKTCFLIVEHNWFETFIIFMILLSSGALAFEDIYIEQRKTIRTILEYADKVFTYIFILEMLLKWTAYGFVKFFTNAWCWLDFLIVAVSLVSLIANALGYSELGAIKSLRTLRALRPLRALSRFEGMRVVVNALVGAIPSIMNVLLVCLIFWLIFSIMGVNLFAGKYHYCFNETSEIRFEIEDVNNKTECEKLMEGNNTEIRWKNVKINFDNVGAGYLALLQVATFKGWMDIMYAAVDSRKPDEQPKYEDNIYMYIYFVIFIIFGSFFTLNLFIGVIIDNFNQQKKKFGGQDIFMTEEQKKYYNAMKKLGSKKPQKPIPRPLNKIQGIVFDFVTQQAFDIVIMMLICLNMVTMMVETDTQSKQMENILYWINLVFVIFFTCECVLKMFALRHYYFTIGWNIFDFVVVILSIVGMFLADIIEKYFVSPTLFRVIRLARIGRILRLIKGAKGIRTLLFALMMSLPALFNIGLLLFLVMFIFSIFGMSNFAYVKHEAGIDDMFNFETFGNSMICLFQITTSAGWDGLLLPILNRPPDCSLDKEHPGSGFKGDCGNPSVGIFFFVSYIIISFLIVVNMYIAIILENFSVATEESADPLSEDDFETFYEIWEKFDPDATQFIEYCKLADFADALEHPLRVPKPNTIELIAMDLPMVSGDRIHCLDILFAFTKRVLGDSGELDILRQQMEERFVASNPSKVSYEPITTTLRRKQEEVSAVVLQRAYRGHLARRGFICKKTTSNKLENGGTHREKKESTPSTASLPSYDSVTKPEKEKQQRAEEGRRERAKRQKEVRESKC
In words: Modulation of late sodium current (INaL), PatchXpress electrophysiology. Format: cell-based. The settings on record: HEK293, read-out: INaL v1.6 (1 µM, % Inhibition). The protocol: Functional characterization of exemplary compounds to modulate INaL expressed by the NaV1.6 voltage-gated sodium channel was accomplished using the PatchXpressTM high throughput electrophysiology platform (Molecular Devices, Sunnyvale, CA). HEK-293 cells expressing recombinant, human NaV1.6 (hNaV1.6)were grown in DMEM/high-glucose Dulbecco's modified, 10% FBS, 2 mM sodium pyruvate, 10 mM HEPES and 400 μg/mL G418. Cells were grown to 50% - 80% confluency prior to harvesting. Trypsinized cells were washed, allowed to recover for 1 hour and then resuspended in extracellular recording solution at a concentration of 1 × 10^6 cells/ml. The onboard liquid handling facility of the PatchXpress was used for dispensing cells and applying test compounds. Nav late currents were evoked by the application of 300 nM ATX-II. […] INaL amplitude and stability were determined by analyzing the mean current amplitude over the final 20 ms of […] pulse. […] Percent steady-state inhibition of INaL was calculated as: [([…])]*100, where INaL_compound and INaL _control represent INaL recorded in the presence or absence of compound, respectively.
Usually inhibition stands for the change of the read-out against control, counted positive when it falls. For the molecule `Fc1cc(-c2cn3c(C(F)(F)F)ncc3cn2)cnc1OCC(F)(F)F` [Compound 23, 6-[5-fluoro-6-(2,2,2-trifluoroethoxy)-3-pyridyl]-3-(trifluoromethyl)imidazo[1,5-a]pyrazine], the inhibition at 1 µM lay within 30 to 70%.
The same measure, in the same setting: under `FC1(F)CC(c2ncc3ncc(-c4ccc(OC(F)(F)F)cc4)cn23)C1` [Compound 24] stands less than 30%; under `N#Cc1nc(C(F)(F)F)n2cc(-c3ccc(OCC(F)(F)F)nc3)ccc12` [Compound 19], more than 70%.
Regarding `FC(F)(F)c1ccc(-c2cnc3cnc(C(F)(F)F)n3c2)cc1` [Compound 18], the inhibition at 1 µM is less than 30%.
In the case of `N#Cc1nc(C(F)F)n2cc(-c3ccc(OC(F)(F)F)cc3)ccc12` [Compound 21], the inhibition at 1 µM is 30 to 70%.
With `N#Cc1nc(C(F)(F)F)n2cc(-c3ccc(C4(C#N)CC4)cc3)ccc12` [Compound 20], the inhibition at 1 µM is less than 30%.
In the case of `COCc1cc(OC(F)(F)F)ccc1-c1cnc2cnc(C(F)(F)F)n2c1` [Compound 12], the inhibition at 1 µM lay in the range of 30 to 70%.

Staying with this assay, now noted: HEK293; 1 µM compound; HEK-293 cells expressing hNaV1.6; late current evoked by 300 nM ATX-II; read-out: INaL v1.6 (1 µM, % Inhibition).
In the case of `N#CC1(c2ccc(-c3cn4c(C(F)(F)F)ncc4cn3)cc2)CC1` [Compound 22], the inhibition at 1 µM fell in the range of 30 to 70%.
Same read-out and setting: the figure for `N#Cc1nc(C(F)(F)F)n2cc(-c3cnc(OCC(F)(F)F)c(F)c3)ncc12` [Compound 31, 6-[5-fluoro-6-(2,2,2-trifluoroethoxy)-3-pyridyl]-3-(trifluoromethyl)imidazo[1,5-a]pyrazine-1-carbonitrile] is 30 to 70%; for `N#Cc1nc(C(F)(F)F)n2cc(-c3cnc(OCC(F)(F)F)c(F)c3)ccc12` [Compound 33, 6-[5-fluoro-6-(2,2,2-trifluoroethoxy)-3-pyridyl]-3-(trifluoromethyl)imidazo[1,5-a]pyridine-1-carbonitrile] it is more than 70%; for `Fc1cc(-c2cnc3cnc(C(F)(F)F)n3c2)cnc1OCC(F)(F)F` [Compound 32, 3-[5-fluoro-6-(2,2,2-trifluoroethoxy)-3-pyridyl]-6-(trifluoromethyl)imidazo[1,5-a]pyrimidine] it is 30 to 70%.
Still for that read-out and setting: under `N#Cc1nc(C(F)(F)F)n2cc(-c3ccc(OC(F)(F)F)cc3)ncc12` [Compound 27] stands more than 70%; under `FC(F)c1ncc2ncc(-c3ccc(OC(F)(F)F)cc3)cn12` [Compound 10], less than 30%; under `COC(C)(C)c1ccc(-c2ccc3cnc(C(F)(F)F)n3c2)cc1` [Compound 3], 30 to 70%.
In the case of `Cc1nc(C(F)(F)F)n2cc(-c3ccc(OC(F)(F)F)cc3)cnc12` [Compound 14], the inhibition at 1 µM is 30 to 70%.
On the same count and under the same terms, the figure for `COCc1cc(OC(F)(F)F)ccc1-c1ccc2c(C#N)nc(C(F)(F)F)n2c1` [Compound 16] is more than 70%.
Same read-out and setting: the figure for `N#Cc1nc(C2CC2(F)F)n2cc(-c3ccc(OC(F)(F)F)cc3)ccc12` (stereo not shown) [Compound 30] is more than 70%; for `COCc1cc(OC(F)(F)F)ccc1-c1cn2c(C(F)(F)F)ncc2cn1` [Compound 15] it is more than 70%; for `FC(F)(F)Oc1ccc(-c2cn3c(C(F)(F)F)ncc3cn2)cc1` [Compound 7] it is 30 to 70%.
With `FC(F)(F)COc1ccc(-c2ccc3cnc(C(F)(F)F)n3c2)cn1` [Compound 2], the inhibition at 1 µM lay in the range of 30 to 70%.
Still for that read-out and setting: under `COc1cc(OC(F)(F)F)ccc1-c1ccc2cnc(C(F)(F)F)n2c1` [Compound 1] stands more than 70%; under `N#Cc1nc(C(F)(F)F)n2cc(-c3ccc(C(F)(F)F)cc3)ncc12` [Compound 29], more than 70%; under `N#CC1(c2ccc(-c3ccc4cnc(C(F)(F)F)n4c3)cc2)CC1` [Compound 4], 30 to 70%.
On the same count and under the same terms, under `COCc1cc(OC(F)(F)F)ccc1-c1cn2c(C(F)(F)F)nc(C#N)c2cn1` [Compound 28] stands more than 70%; under `N#Cc1nc(C(F)(F)F)n2cc(-c3ccc(OC(F)(F)F)cc3)cnc12` [Compound 11], less than 30%.
The same measure, in the same setting: under `FC(F)(F)Oc1ccc(-c2ccc3cnc(C(F)(F)F)n3n2)cc1` [Compound 9] stands 30 to 70%; under `N#Cc1nc(C(F)(F)F)n2nc(-c3ccc(OC(F)(F)F)cc3)ccc12` [Compound 25], less than 30%.
Consider `FC(F)(F)Oc1ccc(-c2ccc3cnc(C4CC4(F)F)n3c2)cc1` (stereo not shown) [Compound 26], for which the inhibition at 1 µM is 30 to 70%.
Still for that read-out and setting: the figure for `FC(F)(F)Oc1ccc(-c2cnc3cnc(C(F)(F)F)n3c2)cc1` [Compound 8] is 30 to 70%; for `COc1cc(C2(C#N)CC2)ccc1-c1cnc2cnc(C(F)(F)F)n2c1` [Compound 17] it is less than 30%.
Still for that read-out and setting: under `N#CC1(c2ccc(-c3cnc4cnc(C(F)(F)F)n4c3)cc2)CC1` [Compound 13] stands less than 30%.
